Assay results: publication PMC2629381 (Biochemistry, 2008)

Molecular target: GluR4 (GluR4flip) (Rattus norvegicus, UniProt P19493, L505Y)
Assay: whole-cell voltage-clamp dose-response
Assay type: cell-based

GluR4 (GluR4flip), sequence (P19493 21-902 isoform P19493-2 L505Y): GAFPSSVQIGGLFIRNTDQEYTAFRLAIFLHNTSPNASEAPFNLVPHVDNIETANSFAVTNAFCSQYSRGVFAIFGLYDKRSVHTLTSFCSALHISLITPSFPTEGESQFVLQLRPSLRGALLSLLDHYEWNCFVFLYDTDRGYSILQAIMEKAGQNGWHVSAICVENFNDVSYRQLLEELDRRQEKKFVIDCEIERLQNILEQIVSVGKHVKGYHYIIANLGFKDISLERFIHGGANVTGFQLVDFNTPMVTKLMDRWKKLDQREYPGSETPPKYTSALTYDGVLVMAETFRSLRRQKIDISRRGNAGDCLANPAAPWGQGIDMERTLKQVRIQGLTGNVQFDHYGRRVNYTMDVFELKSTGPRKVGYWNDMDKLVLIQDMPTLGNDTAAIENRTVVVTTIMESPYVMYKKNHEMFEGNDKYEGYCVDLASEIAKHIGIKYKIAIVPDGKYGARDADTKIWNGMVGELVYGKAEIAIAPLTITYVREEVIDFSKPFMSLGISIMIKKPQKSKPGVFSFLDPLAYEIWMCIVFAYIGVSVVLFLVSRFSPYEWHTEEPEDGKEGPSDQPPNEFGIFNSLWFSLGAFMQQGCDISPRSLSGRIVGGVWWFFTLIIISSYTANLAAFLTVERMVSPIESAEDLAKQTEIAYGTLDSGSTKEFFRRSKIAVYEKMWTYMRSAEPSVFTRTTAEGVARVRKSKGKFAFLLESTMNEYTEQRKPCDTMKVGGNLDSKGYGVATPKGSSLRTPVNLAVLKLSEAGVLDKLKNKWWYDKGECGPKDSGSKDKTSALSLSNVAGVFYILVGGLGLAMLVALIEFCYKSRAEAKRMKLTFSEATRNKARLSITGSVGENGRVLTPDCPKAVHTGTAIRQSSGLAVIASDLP

Structure (SMILES): C=C(C)[C@H]1CN[C@H](C(=O)O)[C@H]1CC(=O)O [Kainate, 2-carboxy-3-carboxymethyl-4-isopropenyl-pyrrolidine]
- EC50: 92 ± 14 µM
